Test results as given in patent US20260125375A1 (Pfizer Inc., priority 2022, published 2026).

How the values were obtained:
C-CBL (46-435) = target: T1, C-CBL (46-435) (Homo sapiens, UniProt P22681); experiment: Surface Plasmon Resonance (SPR) assay, binding affinity and kinetics, C-CBL; conditions: SPR at 10° C., biotinylated C-CBL (46-435) on streptavidin chip; geometric mean; read-out: C-CBL SPR Kd (nM) GMean
T1 construct: N-terminal biotinylated WT CBL-B (36-427) and C-CBL (46-435) were captured on a streptavidin (SA) coated sensor chip
T1 sequence (P22681 46-435): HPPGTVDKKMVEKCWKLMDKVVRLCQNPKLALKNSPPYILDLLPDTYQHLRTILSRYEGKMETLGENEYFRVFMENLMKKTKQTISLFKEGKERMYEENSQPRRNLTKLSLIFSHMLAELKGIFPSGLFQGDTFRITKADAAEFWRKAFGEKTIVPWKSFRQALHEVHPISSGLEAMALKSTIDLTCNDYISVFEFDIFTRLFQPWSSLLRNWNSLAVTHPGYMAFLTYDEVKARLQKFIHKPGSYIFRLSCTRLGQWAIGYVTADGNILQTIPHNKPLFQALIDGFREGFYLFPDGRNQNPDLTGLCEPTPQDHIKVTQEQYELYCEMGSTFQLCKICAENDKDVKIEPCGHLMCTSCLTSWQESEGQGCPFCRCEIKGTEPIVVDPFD
Summary of the method: (§1)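 Biotinylated WT CBL-B (36-427) or C-CBL (46-435) captured on streptavidin chip (~5000–6000 RU); binding at 10° C in HEPES buffer pH 7.2 with 2% DMSO. Multi-cycle: 2-fold, 10-point series from 10 or 100 μM, 90 s association. Single-cycle: 3-fold, 6-point, 0.001–1 μM, 120 s association, >5400 s dissociation.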

C-CBL (residues 46-435) = target: T2, C-CBL (residues 46-435) (Homo sapiens, UniProt P22681); experiment: Ligand Displacement Assay (LDA), HTRF competitive binding against BODIPY-labeled fluorescent tracer, C-CBL; conditions: geometric mean of the number of tests, read-out: C-CBL Ki (nM) GMean
T2 construct: Purified CBL-B (residues 36-427) and C-CBL (residues 46-435) proteins from baculovirus-infected insect cells; made in house; host or cells: baculovirus-infected insect cells
T2 sequence (P22681 46-435): T1 sequence (P22681 46-435)
Summary of the method: (§2)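 Competition with a BODIPY fluorescent tracer was read by HTRF, each protein carrying an N-terminal biotinylated AviTag bound to Tb-streptavidin. Tracer KD values were set beforehand per protein; Ki derives from duplicate three-fold compound series ([…], 2% DMSO), averaged geometrically across tests.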

CBL-B (residues 36-427) = target: T3, CBL-B (residues 36-427) (Homo sapiens, UniProt Q13191); experiment: Ligand Displacement Assay (LDA), HTRF competitive binding against BODIPY-labeled fluorescent tracer, CBL-B; conditions: geometric mean of the number of tests, read-out: CBL-B Ki (nM) GMean
T3 construct: Purified CBL-B (residues 36-427) and C-CBL (residues 46-435) proteins from baculovirus-infected insect cells; made in house; host or cells: baculovirus-infected insect cells
Summary of the method: as §2

WT CBL-B (36-427) = target: T4, WT CBL-B (36-427) (Homo sapiens, UniProt Q13191); experiment: Surface Plasmon Resonance (SPR) assay, binding affinity and kinetics, CBL-B; conditions: SPR at 10° C., biotinylated WT CBL-B (36-427) on streptavidin chip; geometric mean; read-out: CBL-B SPR Kd (nM) GMean
T4 construct: N-terminal biotinylated WT CBL-B (36-427) and C-CBL (46-435) were captured on a streptavidin (SA) coated sensor chip
Summary of the method: as §1

Structure (SMILES)	Kd (C-CBL (46-435))	Ki (C-CBL (residues 46-435))	Ki (CBL-B (residues 36-427))	Kd (WT CBL-B (36-427))
CC(N)c1nc(C(F)(F)F)cc2c(-c3cccc(C4(Cc5nncn5C)COC4)c3)n[nH]c12 (single isomer, unassigned) [Example K17, (1ξ)-1-[3-(3-{3-[(4-methyl-4H-1,2,4-triazol-3-yl)methyl]oxetan-3-yl}phenyl)-5-(trifluoromethyl)-1H-pyrazolo[3,4-c]pyridin-7-yl]ethan-1-amine]	256 nM	145 nM	44.6 nM	27.3 nM
CC(O)c1nc(C(F)(F)F)cc2c(-c3cccc(C4(Cc5nncn5C)COC4)c3)n[nH]c12 (single isomer, unassigned) [Example K10, (1ξ)-1-[3-(3-{3-[(4-methyl-4H-1,2,4-triazol-3-yl)methyl]oxetan-3-yl}phenyl)-5-(trifluoromethyl)-1H-pyrazolo[3,4-c]pyridin-7-yl]ethan-1-ol]	291 nM	219 nM	45.1 nM	23.5 nM
Cn1cnnc1[C@@H](c1cccc(-c2n[nH]c3c(CN[C@@H]4CC[C@H](O)C4)nc(C(F)(F)F)cc23)c1)C1CCC1 [Example D34]	101 nM	59.9 nM	6.5 nM	1.8 nM
Cn1cnnc1CC1(c2cccc(-c3n[nH]c4c(CNC5CCC5)nc(C(F)(F)F)cc34)c2)COC1 [Example C57, N-{[3-(3-{3-[(4-methyl-4H-1,2,4-triazol-3-yl)methyl]oxetan-3-yl}phenyl)-5-(trifluoromethyl)-1H-pyrazolo[3,4-c]pyridin-7-yl]methyl}cyclobutanamine]	116 nM	96.3 nM	18.9 nM	3.3 nM
C[C@H](CO)c1nc(C(F)(F)F)cc2c(-c3cccc([C@H](c4nncn4C)C4CCC4)c3)n[nH]c12 (single isomer, unassigned) [Example K3, (2ξ)-2-[3-{3-[(ξ)-cyclobutyl(4-methyl-4H-1,2,4-triazol-3-yl)methyl]phenyl}-5-(trifluoromethyl)-1H-pyrazolo[3,4-c]pyridin-7-yl]propan-1-ol]	160 nM	96.5 nM	11 nM	4 nM
CNc1nc2[nH]nc(-c3cccc([C@H](c4nncn4C)C4CCC4)c3)c2cc1C(F)(F)F [E2, 3-{3-[(R)-cyclobutyl(4-methyl-4H-1,2,4-triazol-3-yl)methyl]phenyl}-N-methyl-5-(trifluoromethyl)-1H-pyrazolo[3,4-b]pyridin-6-amine]	1730 nM	2650 nM	244 nM	53.9 nM
CCNC(C)c1nc(C(F)(F)F)cc2c(-c3cccc(C4(Cc5nncn5C)COC4)c3)n[nH]c12 (single isomer, unassigned) [Example C83, (1ξ)-N-ethyl-1-[3-(3-{3-[(4-methyl-4H-1,2,4-triazol-3-yl)methyl]oxetan-3-yl}phenyl)-5-(trifluoromethyl)-1H-pyrazolo[3,4-c]pyridin-7-yl]ethan-1-amine]	161 nM	137 nM	37.1 nM	12.4 nM
CC(NC1CC2(COC2)C1)c1nc(C(F)(F)F)cc2c(-c3cccc([C@H](c4nncn4C)C4CCC4)c3)n[nH]c12 (single isomer, unassigned) [Example C98]	205 nM	109 nM	26.9 nM	11.3 nM
Cn1cnnc1[C@@H](c1cccc(-c2n[nH]c3c(CN4C[C@H](O)[C@@H](O)C4)nc(C(F)(F)F)cc23)c1)C1CCC1 [Example C76, (3S,4S)-1-{[3-{3-[(R)-cyclobutyl(4-methyl-4H-1,2,4-triazol-3-yl)methyl]phenyl}-5-(trifluoromethyl)-1H-pyrazolo[3,4-c]pyridin-7-yl]methyl}pyrrolidine-3,4-diol]	52.1 nM	41.4 nM	3.3 nM	2.5 nM
CC(NC1CC(F)(F)C1)c1nc(C(F)(F)F)cc2c(-c3cccc(C4(Cc5nncn5C)COC4)c3)n[nH]c12 (single isomer, unassigned) [Example C94, 3,3-difluoro-N-{(1ξ)-1-[3-(3-{3-[(4-methyl-4H-1,2,4-triazol-3-yl)methyl]oxetan-3-yl}phenyl)-5-(trifluoromethyl)-1H-pyrazolo[3,4-c]pyridin-7-yl]ethyl}cyclobutan-1-amine]	15 nM	14.9 nM	2.8 nM	2.5 nM
C[C@H](c1nc(C(F)(F)F)cc2c(-c3cccc(C4(Cc5nncn5C)COC4)c3)n[nH]c12)N1CC(F)(F)C1 (single isomer, unassigned) [Example D46]	184 nM	250 nM	46.5 nM	12.2 nM
Cn1cnnc1[C@@H](c1cccc(-c2n[nH]c3c(CN4C[C@@H](O)[C@@H](O)C4)nc(C(F)(F)F)cc23)c1)C1CCC1 [Example C75, (3R,4S)-1-{[3-{3-[(R)-cyclobutyl(4-methyl-4H-1,2,4-triazol-3-yl)methyl]phenyl}-5-(trifluoromethyl)-1H-pyrazolo[3,4-c]pyridin-7-yl]methyl}pyrrolidine-3,4-diol]	97.9 nM	54.8 nM	5 nM	4.7 nM
CN(C)Cc1nc(C(F)(F)F)cc2c(-c3cccc(C4(Cc5nncn5C)COC4)c3)n[nH]c12 [Example C51, N,N-dimethyl-1-[3-(3-{3-[(4-methyl-4H-1,2,4-triazol-3-yl)methyl]oxetan-3-yl}phenyl)-5-(trifluoromethyl)-1H-pyrazolo[3,4-c]pyridin-7-yl]methanamine]	182 nM	115 nM	22 nM	17.8 nM
C[C@@H]1CN(Cc2nc(C(F)(F)F)cc3c(-c4cccc([C@H](c5nncn5C)C5CCC5)c4)n[nH]c23)CCO1 [Example C113, 3-{3-[(R)-cyclobutyl(4-methyl-4H-1,2,4-triazol-3-yl)methyl]phenyl}-7-{[(2R)-2-methylmorpholin-4-yl]methyl}-5-(trifluoromethyl)-1H-pyrazolo[3,4-c]pyridine]	83.6 nM	233 nM	27.1 nM	4.8 nM
CC(C)NC(C)c1nc(C(F)(F)F)cc2c(-c3cccc(C4(Cc5nncn5C)COC4)c3)n[nH]c12 (single isomer, unassigned) [Example C79, N-{(1ξ)-1-[3-(3-{3-[(4-methyl-4H-1,2,4-triazol-3-yl)methyl]oxetan-3-yl}phenyl)-5-(trifluoromethyl)-1H-pyrazolo[3,4-c]pyridin-7-yl]ethyl}propan-2-amine]	121 nM	94.1 nM	20.4 nM	3.2 nM
Cn1cnnc1[C@@H](c1cccc(-c2n[nH]c3c(CN[C@H]4C[C@H](O)C4)nc(C(F)(F)F)cc23)c1)C1CCC1 [Example C119, (1r,3r)-3-({[3-{3-[(R)-cyclobutyl(4-methyl-4H-1,2,4-triazol-3-yl)methyl]phenyl}-5-(trifluoromethyl)-1H-pyrazolo[3,4-c]pyridin-7-yl]methyl}amino)cyclobutan-1-ol]	254 nM	220 nM	28.7 nM	21.9 nM
CC(=O)NCC(C)c1nc(C(F)(F)F)cc2c(-c3cccc([C@H](c4nncn4C)C4CCC4)c3)n[nH]c12 (single isomer, unassigned) [Example M4]	250 nM	157 nM	20.5 nM	10.3 nM
Cn1cnnc1[C@@H](c1cccc(-c2n[nH]c3c(CN4CCNC(=O)C4)nc(C(F)(F)F)cc23)c1)C1CCC1 [Example C112, 4-{[3-{3-[(R)-cyclobutyl(4-methyl-4H-1,2,4-triazol-3-yl)methyl]phenyl}-5-(trifluoromethyl)-1H-pyrazolo[3,4-c]pyridin-7-yl]methyl}piperazin-2-one]	82.1 nM	114 nM	15.4 nM	3 nM
CC(N)c1nc(C(F)(F)F)cc2c(-c3cccc(C4(Cc5nncn5C)COC4)c3)n[nH]c12 (single isomer, unassigned) [Example K16, (1ξ)-1-[3-(3-{3-[(4-methyl-4H-1,2,4-triazol-3-yl)methyl]oxetan-3-yl}phenyl)-5-(trifluoromethyl)-1H-pyrazolo[3,4-c]pyridin-7-yl]ethan-1-amine]	216 nM	140 nM	32 nM	15.7 nM
CCNC(C)c1nc(C(F)(F)F)cc2c(-c3cccc([C@H](c4nncn4C)C4CCC4)c3)n[nH]c12 (single isomer, unassigned) [Example C90]	169 nM	93.3 nM	9.4 nM	5.1 nM
